Assays:
rape = assay: Test B preemergence/postemergence greenhouse plant response rating 0 to 10; type: in vivo, Brassica napus; conditions: 0 to 10 scale
Method in brief: (§1)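 Both application timings were run together: seeds got compound preemergence, and established seedlings (two to eighteen cm) got it postemergence. Non-phytotoxic solvent carried the chemical. Ratings are visual, versus controls, at twelve to sixteen days.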

wheat = assay: as above; type: in vivo, Triticum aestivum; conditions: 0 to 10 scale
Method in brief: as §1

chickweed [1] = assay: as above; type: in vivo, Stellaria media; conditions: 0 to 10 scale
Method in brief: as §1

giant foxtail [2] = assay: as above; type: in vivo, Setaria faberii; conditions: 0 to 10 scale
Method in brief: as §1

sorghum = assay: as above; type: in vivo, Sorghum bicolor; conditions: 0 to 10 scale
Method in brief: as §1

wild buckwheat = assay: Test C preemergence/postemergence greenhouse plant response rating 0 to 100; type: in vivo, Polygonum convolvulus; conditions: POSTEMERGENCE
Method in brief: (§2)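 Compounds in non-phytotoxic solvent went onto sandy loam before emergence (seeded one day earlier) or onto plants at the one-to-four leaf stage. Duck salad was treated via flood water (~2.5 cm, maintained) over silt loam.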

giant foxtail [3] = assay: as above; type: in vivo, Setaria faberii; conditions: POSTEMERGENCE
Method in brief: as §2

barnyardgrass = assay: Test B preemergence/postemergence greenhouse plant response rating 0 to 10; type: in vivo, Echinochloa crus-galli; conditions: 0 to 10 scale
Method in brief: as §1

corn = assay: as above; type: in vivo, Zea mays; conditions: 0 to 10 scale
Method in brief: as §1

crabgrass [4] = assay: as above; type: in vivo, Digitaria spp.; conditions: 0 to 10 scale
Method in brief: as §1

barley = assay: as above; type: in vivo, Hordeum vulgare; conditions: 0 to 10 scale
Method in brief: as §1

crabgrass [5] = assay: Test C preemergence/postemergence greenhouse plant response rating 0 to 100; type: in vivo, Digitaria sanguinalis; conditions: POSTEMERGENCE
Method in brief: as §2

downy brome = assay: as above; type: in vivo, Bromus tectorum; conditions: POSTEMERGENCE
Method in brief: as §2

wild oat = assay: as above; type: in vivo, Avena fatua; conditions: POSTEMERGENCE
Method in brief: as §2

duck salad = assay: Test C flood test plant response rating 0 to 100; type: in vivo, Heteranthera limosa
Method in brief: as §2

chickweed [6] = assay: Test C preemergence/postemergence greenhouse plant response rating 0 to 100; type: in vivo, Stellaria media; conditions: POSTEMERGENCE
Method in brief: as §2

bedstraw = assay: as above; type: in vivo, Galium aparine; conditions: POSTEMERGENCE
Method in brief: as §2

rice = assay: Test C flood test plant response rating 0 to 100; type: in vivo, Oryza sativa
Method in brief: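 Compounds in non-phytotoxic solvent applied preemergence to sandy loam one day after planting, postemergence at the 1–4 leaf stage, or to ~2.5 cm floodwater over silt loam.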

[7] = POSTEMERGENCE section, flood test, Rate 1 g/ha
[8] = POSTEMERGENCE section, flood test, Rate 4 g/ha
[9] = Rate 16 g/ha, under POSTEMERGENCE head (flood test species)
[10] = flood test species listed under POSTEMERGENCE, 62 g/ha, 0 to 100 scale

COCN1C(=O)COc2cc(F)c(-c3nn4c(c3Br)CCCC4)cc21 [Compound 67]
Plant response rating, Rape (rape; POSTEMERGENCE, Rate 10 g/ha): 9 | Plant response rating, Rape (rape; POSTEMERGENCE, Rate 50 g/ha): 10 | Plant response rating, Rape (rape; PREEMERGENCE, Rate 50 g/ha): 3 | Plant response rating, Wheat (wheat; POSTEMERGENCE, Rate 10 g/ha): 5 | Plant response rating, Wheat (wheat; POSTEMERGENCE, Rate 50 g/ha): 6 | Plant response rating, Wheat (wheat; PREEMERGENCE, Rate 50 g/ha): 0 | Plant response rating, Chickweed (chickweed [1]; POSTEMERGENCE, Rate 10 g/ha): 7 | Plant response rating, Chickweed (chickweed [1]; POSTEMERGENCE, Rate 50 g/ha): 9 | Plant response rating, Chickweed (chickweed [1]; PREEMERGENCE, Rate 10 g/ha): 0 | Plant response rating, Chickweed (chickweed [1]; PREEMERGENCE, Rate 50 g/ha): 6 | Plant response rating, Giant foxtail (giant foxtail [2]; POSTEMERGENCE, Rate 10 g/ha): 5 | Plant response rating, Giant foxtail (giant foxtail [2]; POSTEMERGENCE, Rate 50 g/ha): 6 | Plant response rating, Giant foxtail (giant foxtail [2]; PREEMERGENCE, Rate 10 g/ha): 0 | Plant response rating, Giant foxtail (giant foxtail [2]; PREEMERGENCE, Rate 50 g/ha): 2 | Plant response rating, Sorghum (sorghum; POSTEMERGENCE, Rate 10 g/ha): 5 | Plant response rating, Sorghum (sorghum; POSTEMERGENCE, Rate 50 g/ha): 6 | Plant response rating, Sorghum (sorghum; PREEMERGENCE, Rate 50 g/ha): 2 | Plant response rating, Wild buckwheat (wild buckwheat; 62 g/ha, 0 to 100 scale): 100 | Plant response rating (0 to 100), Wild buckwheat (wild buckwheat; Rate 4 g/ha): 70 | Plant response rating (0 to 100), Wild buckwheat (wild buckwheat; Rate 16 g/ha): 100 | Plant response rating, Giant foxtail (giant foxtail [3]; 62 g/ha, 0 to 100 scale): 40 | Plant response rating (0 to 100), Giant foxtail (giant foxtail [3]; Rate 1 g/ha): 10 | Plant response rating (0 to 100), Giant foxtail (giant foxtail [3]; Rate 4 g/ha): 20 | Plant response rating (0 to 100), Giant foxtail (giant foxtail [3]; Rate 16 g/ha): 30 | Plant response rating, Barnyardgrass (barnyardgrass; POSTEMERGENCE, Rate 10 g/ha): 5 | Plant response rating, Barnyardgrass (barnyardgrass; POSTEMERGENCE, Rate 50 g/ha): 6 | Plant response rating, Barnyardgrass (barnyardgrass; PREEMERGENCE, Rate 10 g/ha): 2 | Plant response rating, Barnyardgrass (barnyardgrass; PREEMERGENCE, Rate 50 g/ha): 6 | Plant response rating, Corn (corn; POSTEMERGENCE, Rate 10 g/ha): 3 | Plant response rating, Corn (corn; POSTEMERGENCE, Rate 50 g/ha): 4 | Plant response rating, Corn (corn; PREEMERGENCE, Rate 50 g/ha): 2 | Plant response rating, Crabgrass (crabgrass [4]; POSTEMERGENCE, Rate 10 g/ha): 5 | Plant response rating, Crabgrass (crabgrass [4]; POSTEMERGENCE, Rate 50 g/ha): 6 | Plant response rating, Crabgrass (crabgrass [4]; PREEMERGENCE, Rate 10 g/ha): 0 | Plant response rating, Crabgrass (crabgrass [4]; PREEMERGENCE, Rate 50 g/ha): 2 | Plant response rating, Barley (barley; POSTEMERGENCE, Rate 10 g/ha): 4 | Plant response rating, Barley (barley; POSTEMERGENCE, Rate 50 g/ha): 6 | Plant response rating, Barley (barley; PREEMERGENCE, Rate 10 g/ha): 0 | Plant response rating, Barley (barley; PREEMERGENCE, Rate 50 g/ha): 2 | Plant response rating, Crabgrass (crabgrass [5]; 62 g/ha, 0 to 100 scale): 40 | Plant response rating (0 to 100), Crabgrass (crabgrass [5]; Rate 1 g/ha): 10 | Plant response rating (0 to 100), Crabgrass (crabgrass [5]; Rate 4 g/ha): 20 | Plant response rating (0 to 100), Crabgrass (crabgrass [5]; Rate 16 g/ha): 30 | Plant response rating Downy Brome (downy brome; 62 g/ha, 0 to 100 scale): 60 | Plant response rating (0 to 100), Downy Brome (downy brome; Rate 1 g/ha): 20 | Plant response rating (0 to 100), Downy Brome (downy brome; Rate 4 g/ha): 50 | Plant response rating (0 to 100), Downy Brome (downy brome; Rate 16 g/ha): 60 | Plant response rating, Wild oat (wild oat; 62 g/ha, 0 to 100 scale): 60 | Plant response rating (0 to 100), Wild oat (wild oat; Rate 1 g/ha): 10 | Plant response rating (0 to 100), Wild oat (wild oat; Rate 4 g/ha): 30 | Plant response rating (0 to 100), Wild oat (wild oat; Rate 16 g/ha): 50 | Plant response rating (0 to 100), Duck salad (duck salad; [7]): 0 | Plant response rating (0 to 100), Duck salad (duck salad; [8]): 0 | Plant response rating (0 to 100), Duck salad (duck salad; [9]): 0 | Plant response rating Duck salad (duck salad; [10]): 10 | Plant response rating, Chickweed (chickweed [6]; 62 g/ha, 0 to 100 scale): 100 | Plant response rating (0 to 100), Chickweed (chickweed [6]; Rate 1 g/ha): 70 | Plant response rating (0 to 100), Chickweed (chickweed [6]; Rate 4 g/ha): 70 | Plant response rating (0 to 100), Chickweed (chickweed [6]; Rate 16 g/ha): 95 | Plant response rating, Bedstraw (bedstraw; 62 g/ha, 0 to 100 scale): 80 | Plant response rating (0 to 100), Bedstraw (bedstraw; Rate 1 g/ha): 40 | Plant response rating (0 to 100), Bedstraw (bedstraw; Rate 4 g/ha): 70 | Plant response rating (0 to 100), Bedstraw (bedstraw; Rate 16 g/ha): 80 | Plant response rating (0 to 100), Rice Japonica (rice; [7]): 0 | Plant response rating (0 to 100), Rice Japonica (rice; [8]): 0 | Plant response rating (0 to 100), Rice Japonica (rice; [9]): 50 | Plant response rating Rice Japonica (rice; [10]): 90

From patent US6358885B1, “Substituted phenylheterocyclic herbicides” (Mississippi State University, priority 1992, dated 2002)
